Common to all, as to type: cell-based, human
The subject of assay [1] is Rhodopsin expression in retinal organoids derived from hESCs. The experiment in a line: Immunohistochemistry quantification of Rhodopsin+ cells (rods) at day 150. Conditions: addition day 90-120, organoids at day 150, compared to vehicle control. Here is the method:
Human Pluripotent Stem Cells differentiation to retinal organoids Retinal organoids were differentiated from the CRX-GFP H9 human ESC cell line using a feeder-free system. ESCs were expanded in […] Technologies, 05850) at 37° C. and 5% CO2 on 6 well plates pre-coated with Low Growth Factor Matrigel (Corning, 354230). The retinal organoids were generated following a protocol described in Collin et al., 2019 [25] with addition of various supplements, which are shown in FIG. 1. […] DAPT was only added from day 30-42 (for day 30-60 combined addition with RA from day 30-60), day 60-72 (for the combined addition with RA from day 60-90), day 90-102 (for the combined addition with RA from day 90-120) and day 30-42 (for the combined addition with RA from day 30-120). Retinal organoids were collected on day 150 and fixed in 2% PFA for 30 minutes, followed by three washes in Phosphate-buffered saline (PBS), incubated overnight in 30% sucrose in PBS, embedded in Optical Cutting medium (OCT) ([…], UK) and frozen at -20° C. Ten-micrometre cryostat sections were collected using a Leica Cm1860 cryostat (Leica, Germany) onto Superfrost Plus slides and stored at -20° C. in slide boxes prior to immunostaining. Cryosections were air-dried, washed several times in PBS and incubated in blocking solution (10% normal goat serum, 0.3% Triton-X-100 in PBS) for one hour at room temperature. Slides were incubated with the appropriate primary antibody overnight at 4° C. (Table 2). After rinsing with PBS, sections were incubated with the secondary antibody for 2 hours at room temperature. Alexa Fluor 647 and 546 secondary antibodies (InvitrogenMolecular Probes) were used at a 1:1000 dilution. Negative controls were carried out by omitting the primary antibody. Afterwards, sections were washed three times in PBS and mounted with Vectashield (Vector Laboratories, Burlingame, Calif.) containing Hoechst (LifeTechnologies, UK). Images were captured using an Axio Imager upright microscope with Apotome (Zeiss, Germany) structured illumination fluorescence using 20× objective and 63× oil objective operated with AxioVision software. Final images are presented as a maximum projection and adjusted for brightness and contrast in Adobe Photoshop (Adobe Systems). Cell image quantitation was performed using the MATLAB software (Mathworks, MA) following the protocol described in Dorgau et al., 2019 [26]. A minimum of eight individual retinal organoids were analysed for each condition. All results were further analysed using Microsoft Excel and Prism (GraphPad, USA).

The next assay concerns retinal organoids. Description: Retinal organoid lamination and tissue architecture at day 150. Particulars: day 150 of differentiation. Here is the method:
Human Pluripotent Stem Cells differentiation to retinal organoids Retinal organoids were differentiated from the CRX-GFP H9 human ESC cell line using a feeder-free system. ESCs were expanded in mTeSR™1 (StemCell Technologies, 05850) at 37° C. and 5% CO2 on 6 well plates pre-coated with Low Growth Factor Matrigel (Corning, 354230). The retinal organoids were generated following a protocol described in Collin et al., 2019 [25] with addition of various supplements, which are shown in FIG. 1.
The tested supplements include Retinoic Acid (RA) (0.5 μM or 1 μM Sigma-Aldrich UK), 9-cis-retinal (0.5 μM, Sigma-Aldrich UK), 11-cis-retinal (0.5 μM, BOC Sciences), Levodopa (0.5 μM, Sigma-Aldrich UK), Triiodothyronine (T3) (20 ng/ml or 40 ng/ml, Sigma-Aldrich) and DAPT (10 μM Sigma-Aldrich UK) singly or in combination with each other from day 18 of differentiation for specific durations (day 18 onwards, day 30-60, day 60-90, day 90-120 and day 30-120), except for DAPT (FIG. 1). […]
(§1) Images were captured using an Axio Imager upright microscope with Apotome (Zeiss, Germany) structured illumination fluorescence using 20× objective and 63× oil objective operated with AxioVision software. […]

For assay [2], the system named is OPN1MW/LW (L/M cones) expression in retinal organoids derived from hESCs. Description: Immunohistochemistry quantification of OPN1MW/LW+ cells (L/M cones) at day 150. Conditions: addition day 30-120; organoids at day 150; compared to vehicle control. The protocol:
Human Pluripotent Stem Cells differentiation to retinal organoids Retinal organoids were differentiated from the CRX-GFP H9 human ESC cell line using a feeder-free system. ESCs were expanded in mTeSR™1 (StemCell Technologies, 05850) at 37° C. and 5% CO2 on 6 well plates pre-coated with Low Growth Factor Matrigel (Corning, 354230). The retinal organoids were generated following a protocol described in Collin et al., 2019 [25] with addition of various supplements, which are shown in FIG. 1. […]
as §1
Cell image quantitation was performed using the MATLAB software (Mathworks, MA) following the protocol described in Dorgau et al., 2019 [26]. A minimum of eight individual retinal organoids were analysed for each condition. All results were further analysed using Microsoft Excel and Prism (GraphPad, USA).

Structures are written as SMILES. Entries after “also recorded” stand apart in the source; their conditions may differ.

On to `CC1=C(/C=C/C(C)=C\C=C\C(C)=C\C=O)C(C)(C)CCC1` [9-cis-retinal], for which, in assay [1], the “Rhodopsin+ cells (rods), immunohistochemistry quantification” value (from here on “Rhodopsin+ cells (rods)”) is listed as “lower”.
Take `CC1=C(/C=C/C(C)=C/C=C/C(C)=C/C=O)C(C)(C)CCC1` [11-cis-retinal]: in assay [1], the “Rhodopsin+ cells (rods)” value is given as “lower; also recorded: reduction”.
Regarding `C[C@H](NC(=O)Cc1cc(F)cc(F)c1)C(=O)N[C@H](C(=O)OC(C)(C)C)c1ccccc1` [DAPT], the “Effect on tissue architecture and lamination of the retinal organoids” value in the assay on retinal organoids is recorded as “did not interfere”.
In the case of `CC1=C(/C=C/C(C)=C/C=C/C(C)=C/C(=O)O)C(C)(C)CCC1` [RA, all-trans-retinoic acid], the “OPN1MW/LW+ cells (L/M cones), IHC quantification” value in assay [2] is “significantly enhanced”. Besides, the “Rhodopsin+ cells (rods)” value is reported as “reduction” in assay [1] and “lower” in assay [1] (listed as RA alone).

The values above are taken from patent US20220315888A1, “CULTURE METHOD FOR RETINAL ORGANOIDS” (University of Newcastle Upon Tyne, priority 2019, published 2022).
